The structures appear in SMILES notation. Values joined by “and” are separate entries in the source; they are usually repeats but may differ in a detail not shown here. Equal values may be shown once.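 Five concentrations, 48 hours, 96-well plates. The concentration for 50% growth inhibition is given as GI50. The concentration for full growth arrest is given as TGI.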 Where only a bound is given, the exact number is not on record here.

This assay has as its system MDA-MB-468 breast. Nature of the assay: inhibition of tumour cell growth, NCI panel, 48 h.
Turning to `CS(=O)(=O)c1ccc(Cl)c([N+](=O)[O-])c1`, the GI50 was 1600 nM and the TGI turned out to be 3470 nM.

In the case of `S=C(N/N=C/c1cc(Cl)cc(Cl)c1)NC12CC3CC(CC(C3)C1)C2`, the GI50 was 16800 nM and the TGI is > 100000 nM.

For `CCN(c1ccc(CO)c(Cl)c1)C(C)c1ccc(F)cc1` (stereo not given), the GI50 is 640 nM and the TGI is 5260 nM.

Turning to `CC[C@H](C)[C@H](NC(=O)c1cnccn1)C(=O)N(C)[C@H](C[C@@H](OC(C)=O)c1nc(C(=O)N[C@@H](Cc2ccccc2)C[C@H](C)C(=O)OC)cs1)C(C)C`, the GI50 was 595 nM and the TGI was 29800 nM.

As to `CN1CCCN(CCNc2nccc(-c3c(-c4cccc(O)c4)nc4sccn34)n2)S1(=O)=O`, the GI50 was 9050 nM and 10700 nM; the TGI is 24100 nM and 53000 nM.

In the case of `Fc1cccc(COc2ccc(Nc3ncnc4sc(-c5ccco5)cc34)cc2Cl)c1`, the GI50 is > 17700 nM and the TGI is > 25000 nM.

For `CC1(C)N=C(N)N=C(N)N1c1ccc(CCc2ccccc2)c(Cl)c1`, the GI50 is 55.5 nM and the TGI came to 1340 nM.

`Cc1cc(N(CCNc2ccnc3cc(Cl)ccc23)Cc2ccc3c(c2)OCO3)nc(N2CCN(C)CC2)n1`: the GI50 was 1870 nM and the TGI came out at 4020 nM.

As to `C#C[C@]1(O)CC[C@H]2[C@@H]3CC=C4c5nc(Nc6ccccn6)sc5CC[C@]4(C)[C@H]3CC[C@@]21C`, the GI50 was 1620 nM and the TGI was 5150 nM.

`Cc1cccc(NC(=O)c2sc3nc4c(cc3c2N)CCCC4)c1C`: the GI50 is 339 nM and the TGI was > 100000 nM.

Consider `CC1=CC(=O)CC(C)(C)[C@@]1(O)/C=C/C(C)=C\C(=O)O`, for which the GI50 was 116 nM and the TGI is 308 nM.

In the case of `O=C(Nc1ccc(OC(F)(F)F)cc1)c1sccc1NCc1ccnc2ccccc12`, the GI50 was 1520 nM and the TGI was 19800 nM.

Regarding `NS(=O)(=O)c1ccc(N2Cc3cc(Cl)ccc3OC3=C2C(=O)N(CC2CCCCC2)C3=O)cc1`, the GI50 was 962 nM and the TGI turned out to be 2730 nM.

As to `CC(C)n1c(/C=C/[C@@H](O)C[C@@H](O)CC(=O)O)c(-c2ccc(F)cc2)c2ccccc21`, the GI50 was 5720 nM and 2550 nM; the TGI was > 100000 nM.

With `Cc1ccc(C(=O)Nc2ccc(CN3CCN(C)CC3)c(C(F)(F)F)c2)cc1C#Cc1cnc(N)c2ccc(F)cc12`, the GI50 is 359 nM and the TGI came to 1190 nM.

As to `Cc1ccc(C(=O)/C(=C/c2ccc([N+](=O)[O-])cc2)S(=O)Cc2ccccc2)cc1` (stereo not given), the GI50 was 1710 nM and the TGI was determined as 4070 nM.

With `CNC(=O)Nc1ccc(-c2nc(N3CCOCC3)nc3c2cnn3C2CCOCC2)cc1`, the GI50 was 151 nM and the TGI was 936 nM.

On to `C[C@]12CC[C@@H]3c4ccc(O)c([N+](=O)[O-])c4CC[C@H]3[C@@H]1CC[C@@H]2NS(=O)(=O)c1ccc(C(F)(F)F)cc1`, for which the GI50 is 2180 nM and the TGI came to 6290 nM.

`C[n+]1cc2c3c(ccc2c2ccc4cc5c(cc4c21)OCO5)OCO3`: the GI50 is 1050 nM and the TGI was determined as 2480 nM.

With `N=C(N)c1ccc(-c2ccc(-c3ccc(Cl)cc3Cl)o2)cc1`, the GI50 is 1940 nM and the TGI is 3680 nM.

Consider `CCNCCCn1c2c(c3cc(OC)c(OC)cc3c1=O)C(=O)c1cc(OC)cnc1-2`, for which the GI50 is 310 nM and the TGI was found to be 1440 nM.

Turning to `COc1ccc(-c2cc(-c3ccc(Cl)cc3)c(C#N)c(=O)n2CCCCC(=O)Nc2ccccc2N)cc1`, the GI50 is 5680 nM and the TGI amounted to 67500 nM.

For `CCN(CCCCCCCCCCN1CC(=O)N(CCCCCCCCCCN(CC)Cc2ccccc2OC)CC1=O)Cc1ccccc1OC`, the GI50 is 1110 nM and the TGI was found to be 2500 nM.

`COc1cc(-c2csc(NC(=O)c3cc(C(F)(F)F)cc(C(F)(F)F)c3)n2)cc(OC)c1OC`: the GI50 was 1640 nM and the TGI was determined as 7020 nM.

Consider `CCN1CCN(Cc2ccc(NC(=O)Nc3ccc(-n4ccc5c(NC(=O)c6ccccc6)nccc54)cc3)cc2C(F)(F)F)CC1`, for which the GI50 is 1770 nM and the TGI was found to be 3300 nM.

Turning to `C#Cc1nc(/C=C/C(=O)NO)cs1`, the GI50 is 1110 nM and the TGI was 4160 nM.

Regarding `Clc1ccc(COC(Cn2ccnc2)c2ccc(Cl)cc2Cl)cc1` (stereo not given), the GI50 is 2020 nM and the TGI is 6810 nM.

Consider `COC(=O)c1ccc2c(c1)C(NC(C)=O)CCc1cc(OC)c(OC)c(OC)c1-2` (stereo not given), for which the GI50 is 18.4 nM and the TGI is > 100000 nM.

With `COc1cc(/C=C2\CN(C)CC3=C2Nc2nc(SC)[nH]c(=O)c2C3c2cc(OC)c(OC)c(OC)c2)cc(OC)c1OC` (stereo not given), the GI50 is 2200 nM and the TGI came out at 10600 nM.

Consider `COc1ccc(Cl)cc1Nc1nc(C(F)(F)F)ccc1C(=O)NN`, for which the GI50 is 3880 nM and the TGI was > 85900 nM.

Regarding `Cn1cc(C2=C(c3cn(C)c4ccc(N)cc34)C(=O)NC2=O)c2ccccc21`, the GI50 is 7350 nM and the TGI was > 25000 nM.

In the case of `N/C(=N\OC(=O)c1ccccc1)C(C(=O)NOC(=O)c1ccccc1)C1CCCCC1` (stereo not given), the GI50 is 13300 nM and the TGI was 29400 nM.

For `COc1ccc(C(=O)N2c3ccccc3Sc3ccccc32)c(F)c1`, the GI50 is 413 nM and the TGI is > 100000 nM.

For the compound `COc1cc(Nc2ccnc(N3CCN(c4ccnc5cc(Cl)ccc45)CC3)n2)cc(OC)c1`, the GI50 was 832 nM and the TGI was > 84900 nM.

Regarding `CCOC(=O)c1c(NC(=O)c2ccc(C(C)C)cc2)sc2c(CN(C)C)c(O)ccc12`, the GI50 is 1880 nM and the TGI came to 4090 nM.

(Values after PubChem BioAssay (NCI).)
